One series concerns CD8+ T cells. Description: Cytokine and cytolytic granule production of CD8+ T cells stimulated with plate-bound anti-CD3/CD28. The note with it: pretreated with compound vs vehicle (DMSO); stimulated with 5 μg/ml plate-bound anti-CD3/CD28. The format is cell-based, mouse. On the procedure: Peripheral T cells were isolated from mouse spleen and draining lymph nodes by a CD8^+ or CD4^+ T cell negative selection kit (Stem cell). To analyse the tumour-infiltrating T cells, tumours were first digested by collagenase IV (sigma), and tumour-infiltrating leukocytes were isolated by 40-70% percoll (GE) gradient centrifugation. To measure the effector function of CD8^+ T cells, the isolated cells were first stimulated with 1 μM ionomycin and 50 ng/ml PMA for 4 hours in the presence of 5 μg/ml BFA, and then stained with PERCP-α-CD8a. Next, cells were fixed with 4% PFA and stained with FITC-α-Granzyme B, APC-α-IFNγ and PE-α-TNFα. In general, to gate the cytokine or granule producing cells, T cells without stimulation or stained with isotype control antibody were used as negative controls. This gating strategy is applicable for most of the flow cytometric analyses. To detect the MDSCs (myeloid-derived suppressor cells) in the tumour, the percoll isolated leukocyte were stained with α-CD45, α-CD11b and α-Ly6G (Gr1), the CD45^+ population was gated, after which the MDSC population (CD11b^+ Gr1^+) in CD45^+ were gated.
(§1) CD8^+ T cells were pretreated with vehicle (dimethylsulfoxide, DMSO), CP-113,818 or K604. Then the cells were stimulated with 5 μg ml^−1 plate-bound anti-CD3/CD28, and cytokine and cytolytic granule production was studied. Cytotoxicity of OT-I CTLs pretreated with CP-113,818 or K604 or vehicle was also studied.

A further series has as its system OT-I CTLs. Description: CD8+ T-cell (OT-I CTL) cytotoxicity against antigen-pulsed EL-4 cells, LDH release. The class given is cell-based, mouse. The note with it: for cytotoxicity of CD8+ T cells: OT-I CTLs pretreated with compound vs vehicle. On the procedure:
To generate mature Cytotoxic T lymphocytes (CTLs), splenocytes isolated from Acat1^CKO-OT-I mice or WT OT-I mice were stimulated with OVA257-264 (N4) for 3 days in the presence of 10 ng/ml IL-2. Cells were centrifuged and cultured in fresh medium containing 10 ng/ml IL-2 for 2 more days, after which most of the cells in the culture were CTLs. To measure CD8^+ T-cell cytotoxicity, EL-4 cells were pulsed with 2 nM antigenic peptide (N4, A2, T4, G4, R4 or Catnb) for 30 minutes. After washing EL-4 cells and CTLs three times with PBS, we mixed CTLs and antigen-pulsed EL-4 cells (1×10^5) in the killing medium (phenol free-RPMI 1640, 2% FBS), at the ratio of 1:1, 1:2 and 1:5, respectively. After 4 hours, the cytotoxic efficiency was measured by quantifying the release of endogenous lactate dehydrogenase (LDH) from EL-4 cells using a CytoTox 96 Non-Radioactive Cytotoxicity kit (Promega).
as §1
To study ACAT1 inhibitors in cancer immunotherapies in mice, melanoma-bearing mice were treated with a potent ACAT-1 inhibitor, avasimibe (Ava), or DMSO control, and tumour size and survival were studied. A combined therapy (avasimibe and anti-PD-1) or monotherapies (avasimibe or anti-PD-1) were also studied and compared in treating melanoma. In a lung cancer model, Lewis lung carcinoma-bearing mice were treated with avasimibe or DMSO control, and tumour multiplicity and survival were studied. Cytokine productions of stimulated human (h) CD8^+ T cells pretreated with avasimibe, CP-113,818, or DMSO. CTL cytotoxicity after avasimibe treatment was measured by the LDH assay. OT-I CTLs were pretreated with avasimibe or vehicle for 6 h and then incubated with EL-4 cells pulsed with OVA257-264 peptide for 4 h.
(Release of lactate dehydrogenase indicates damage to the cell membrane.)

The conditions of series [1]: cited from earlier work.
The test system of another series is B16F10 melanoma. Description: Skin melanoma mouse model (B16F10), avasimibe therapy. The class given is in vivo. The note with it: melanoma-bearing mice; avasimibe 15 mg/kg intraperitoneally every 2 days from Day 10, vs DMSO control. The method, then: (§2) A combined therapy (avasimibe and anti-PD-1) or monotherapies (avasimibe or anti-PD-1) were also studied and compared in treating melanoma. In a lung cancer model, Lewis lung carcinoma-bearing mice were treated with avasimibe or DMSO control, and tumour multiplicity and survival were studied. […] CTL cytotoxicity after avasimibe treatment was measured by the LDH assay. OT-I CTLs were pretreated with avasimibe or vehicle for 6 h and then incubated with EL-4 cells pulsed with OVA257-264 peptide for 4 h.

Another series deals with human CD8+ T cells. Description: Human CD8+ T-cell cytokine production. The class given is cell-based. The note with it: PBMCs pretreated 12 hours, then plate-bound α-CD3/α-CD28 for 24 hours; vs DMSO. On the procedure: Human peripheral blood mononuclear cells (PBMCs) from healthy donators were stimulated with 5 μg/ml PHA (Sigma) for 2 days and then rested for 1 day. Cells were pretreated with vehicle (DMSO), CP113, 818 or avasimibe for 12 hours and then stimulated with plate-bound α-CD3 (5 μg/ml) and α-CD28 (5 μg/ml) antibodies for 24 hours. Intracellular staining and flow cytometry were used to assess cytokines production of CD8^+ T cells. […] A combined therapy (avasimibe and anti-PD-1) or monotherapies (avasimibe or anti-PD-1) were also studied and compared in treating melanoma. In a lung cancer model, Lewis lung carcinoma-bearing mice were treated with avasimibe or DMSO control, and tumour multiplicity and survival were studied. […] CTL cytotoxicity after avasimibe treatment was measured by the LDH assay. OT-I CTLs were pretreated with avasimibe or vehicle for 6 h and then incubated with EL-4 cells pulsed with OVA257-264 peptide for 4 h.

Series [2] relates to Lewis lung carcinoma (LLC). Description: Lewis lung carcinoma (LLC) model, avasimibe therapy. The class given is in vivo, mouse. As to conditions: avasimibe 15 mg/kg intraperitoneally every 3 days, Day 10 to Day 35, vs DMSO control. The method, then: as §2

As to `CCCCCCCC[C@H](SCCCCCC)C(=O)Nc1c(SC)cc(C)nc1SC` [CP-113,818, (S)—N-(2,4-Bis(methylthio)-6-methylpyridin-3-yl)-2-(hexylthio)decanoic acid amide], in the series on CD8+ T cells, the “cytolytic granule and cytokine productions of CD8+ T cells” value is “augmented”. The “cytotoxicity of CD8+ T cells” value with OT-I CTLs is “augmented”.
As for `CSc1cc(C)nc(SC)c1NC(=O)CN1CCN(CCSc2nc3ccccc3[nH]2)CC1` [K604, 2-[4-[2-(benzimidazol-2-ylthio)ethyl]piperazin-1yl]-N-[2,4-bis(methylthio)-6-methyl-3-pyridyl]acetamide], in the series on CD8+ T cells, the “cytolytic granule and cytokine productions of CD8+ T cells” value is given as “augmented”. The “cytotoxicity of CD8+ T cells” value in the series on OT-I CTLs was “augmented”.
As for `CC[C@H](C)C(=O)O[C@H]1C[C@@H](C)C=C2C=C[C@H](C)[C@H](CC[C@@H]3C[C@@H](O)CC(=O)O3)[C@H]21` [Lovastatin], the “cytolytic granule and cytokine productions of CD8+ T cells” value in the series with CD8+ T cells is on record as “significantly decreased”.
Still for that read-out and setting: the same measure for `CCN(CC)CCO[C@H]1CC[C@@]2(C)C(=CC[C@@H]3[C@@H]2CC[C@]2(C)C(=O)CC[C@@H]32)C1` [U18666A]: “significantly decreased”.
Consider `CC(C)c1cc(C(C)C)c(CC(=O)NS(=O)(=O)Oc2c(C(C)C)cccc2C(C)C)c(C(C)C)c1` [avasimibe, [2,6-di(propan-2-yl)phenyl] N-[2-[2,4,6-tri(propan-2-yl)phenyl]acetyl]sulfamate], for which, in the series with OT-I CTLs (OT-I CTLs pretreated with avasimibe or vehicle for 6 h, EL-4 cells pulsed with OVA257-264 for 4 h, LDH assay), the “effector function of mouse CD8+ T cells ex vivo” value was “enhance”. In addition, the well tolerated dose in series [1] (adult human subjects, four times daily (i.e., 3000 mg/day), Kharbanda et al (2005)) is listed as no less than 750 mg. Also, the human safety profile entry in series [1] (clinical trials for treating atherosclerosis) is “good human safety profile”. In the series on B16F10 melanoma, the survival time entry is on record as “prolonged” and the tumour growth entry is recorded as “inhibited”. In addition, in the series on human CD8+ T cells, the “cytokine production of human CD8+ T cells” value was “enhanced”. Besides, the “antitumor effect in Lewis lung carcinoma (tumour multiplicity and survival)” value in series [2] was “good antitumor effect”.

The values are drawn from patent US11571400B2, “ACAT1 inhibitors for treating cancer” (Shanghai Institutes for Biological Sciences, Chinese …, priority 2016, dated 2023).
